Source: US20070059364A1, “Active substance combination comprising a compound with npy receptor affinity and a compound with 5-ht6 receptor affinity” (Laboratorios Del Dr. Esteve S.A., priority 2003, published 2007)

Structure (SMILES)	melting point
CN1CC=C(c2cn(S(=O)(=O)C3CCCCC3)c3ccc(N)cc23)CC1 [Example 3h, 5-Amino-1-cyclohexanesulfonyl-3-(1-methyl-1,2,3,6-tetrahydropyridine-4-yl)-1H-indole]	75 °C (dec.)
Cl.O=S(=O)(C1CCCCC1)n1cc(C2=CCN3CCCC3C2)c2cc(F)ccc21 (centres unmarked) [Example 4h, 1-Cyclohexanesulfonyl-5-fluoro-3-(1,2,3,5,8,8a-hexahydro-indolizine-7-yl)-1H-indole hydrochloride]	263 °C (dec.)
Cl.O=C(CN1CCC(N2C(=O)OCc3ccccc32)CC1)Nc1ccccc1C(=O)c1ccccc1	211 to 216 °C
CN(C)CCc1c[nH]c2ccc(NS(=O)(=O)c3cccc4nsnc34)cc12	192 °C
Cl.O=C(CCN1CCC(N2C(=O)OCc3ccccc32)CC1)Nc1ccc2c(c1)-c1ccccc1C2=O	240 to 242 °C
O=S(=O)(Nc1ccc2[nH]cc(CCN3CCCC3)c2c1)c1cccc2ccccc12	212 to 214 °C
Cl.O=C(CN1CCC(N2C(=O)OCc3ccccc32)CC1)Nc1ccccc1	262 to 272 °C
Cc1cc2cc(NS(=O)(=O)c3ccc4ccccc4c3)ccc2n1CCN(C)C	199 to 200 °C
CC(C)N(c1ccccc1)c1ccc(NC(=O)CN2CCC(N3C(=O)OCc4ccccc43)CC2)cc1.Cl	171 to 173 °C
Cl.N#Cc1ccc(NC(=O)CN2CCC(N3C(=O)OCc4cc(Cl)ccc43)CC2)cc1	274 to 278 °C
Cc1ccc2c(c1)COC(=O)N2C1CCN(CC(=O)Nc2ccccc2Cl)CC1	146 to 148 °C
CN(C)CCn1ccc2cc(NS(=O)(=O)/C=C/c3ccccc3)ccc21	108 to 111 °C
O=S(=O)(Nc1ccc2[nH]cc(CCN3CCOCC3)c2c1)c1ccc(-c2ccccc2)cc1 [Example 51c, N-{3-[2-(morpholin-4-yl)ethyl]-1H-indol-5-yl}-4-phenylbenzenesulphonamide]	225 to 228 °C
CN(C)CCn1ccc2ccc(NS(=O)(=O)c3ccc4ccccc4c3)cc21 [Example 2f, N-[1-(2-Dimethylaminoethyl)-1H-indol-6-yl]-naphthalene-2-sulfonamide]	140 to 143 °C
Cc1cccc2c1N(C1CCN(CC(=O)Nc3ccc4c(c3)C(O)c3ccccc3-4)CC1)C(=O)OC2.Cl (centres unmarked)	283 to 285 °C
CN(C)CCn1ccc2c(NS(=O)(=O)c3cc(Cl)cc(Cl)c3)cccc21 [Example 7d, N-[1-(2-dimethylaminoethyl)-1H-indole-4-yl]-3,5-dichlorobenzenesulfonamide]	113 to 118 °C
CCn1c2ccccc2c2cc(NC(=O)CN3CCC(N4C(=O)OCc5cc(C)ccc54)CC3)ccc21.Cl	247 to 252 °C
CN(C)CCc1c[nH]c2ccc(NS(=O)(=O)c3ccc4c(Cl)cccc4c3)cc12	230 to 240 °C (dec.)
Cl.O=C(CN1CCC(N2C(=O)OCc3ccccc32)CC1)Nc1ccc2c(c1)CCC2	230 to 231 °C
CCN(CC)CCCc1c[nH]c2ccc(NS(=O)(=O)c3ccc4ccccc4c3)cc12 [Example 42c, N-[3-(3-diethylaminopropyl)-1H-indol-5-yl]naphthalene-2-sulphonamide]	128 to 130 °C
Cc1c(S(=O)(=O)Nc2ccc3[nH]cc(CCN4CCCC4)c3c2)sc2ccc(Cl)cc12	201 to 203 °C
Cc1c(S(=O)(=O)Nc2cccc3ccn(CCN4CCCC4)c23)sc2ccc(Cl)cc12 [Example 5g, 5-chloro-3-methyl-N-(1-(2-(pyrrolidin-1-yl)ethyl)-1H-indol-7-yl)-benzo[b]thiophen-2-sulfonamide]	82 to 85 °C
Cl.O=C(CN1CCC(N2C(=O)OCc3ccccc32)CC1)Nc1cccc(C(=O)c2ccccc2)c1	214 to 218 °C
CCN(CC)CCn1ccc2cc(NS(=O)(=O)c3ccc4ccccc4c3)ccc21	97 to 104 °C
Cc1c(S(=O)(=O)Nc2ccc3c(ccn3CCN3CCCC3)c2)sc2ccc(Cl)cc12 [Example 18e, N-[1-(2-pyrrolidine-1-yl-ethyl)-1H-indole-5-yl]-5-chloro-3-methylbenzo[b]thiophene-2-sulfonamide]	156 to 158 °C

Structure (SMILES)	melting point
CN1CCN(Cc2c[nH]c3ccc(NS(=O)(=O)Cc4ccccc4)cc23)CC1 [Example 41c, N-[3-(4-methylpiperazin-1-yl)methyl-1H-indol-5-yl]-α-toluenesulphonamide]	99 to 102 °C
Cl.O=C(CN1CCC(N2C(=O)OCc3cc(Cl)ccc32)CC1)Nc1ccc(Cl)cc1	279 to 282 °C
Cc1ccc2c(c1)COC(=O)N2C1CCN(CC(=O)Nc2ccc(C3CCCCC3)cc2)CC1.Cl	242 to 246 °C
CCN(c1ccccc1)c1ccc(NC(=O)CN2CCC(N3C(=O)OCc4ccccc43)CC2)cc1.Cl	254 to 257 °C
Cc1cccc2c1N(C1CCN(CC(=O)Nc3ccccc3)CC1)C(=O)OC2.Cl	232 to 239 °C
Cc1cccc2c1N(C1CCN(CC(=O)Nc3ccc4c(c3)C(=O)c3ccccc3-4)CC1)C(=O)OC2.Cl	> 300 °C (dec.)
CN(C)CCn1ccc2cccc(NS(=O)(=O)c3c(Cl)nc4sccn34)c21 [Example 4g, N-[1-(2-dimethylaminoethyl)-1H-indole-7-yl]-6-chloroimidazo[2,1-b]thiazole-5-sulfonamide]	73 to 76 °C
CN(C)CCn1ccc2cccc(NS(=O)(=O)c3ccc(-c4ccccc4)cc3)c21 [Example 3g, N-[1-(2-dimethylaminoethyl)-1H-indole-7-yl]-4-phenylbenzenesulfonamide]	137 to 140 °C
O=S(=O)(Nc1ccc2c(ccn2CCN2CCCC2)c1)c1ccc2ccccc2c1 [Example 16e, N-[1-(2-pyrrolidine-1-yl-ethyl)-1H-indole-5-yl]-naphthalene-2-sulfonamide]	138 to 140 °C
O=S(=O)(Nc1ccc2c(ccn2CCCN2CCCCC2)c1)c1ccc(-c2ccccc2)cc1 [Example 47e, 4-phenyl-N-(1-(3-(piperidin-1-yl)propyl)-1H-indol-5-yl)benzenesulfonamide]	148 to 150 °C
CCN(CC)CCc1c[nH]c2ccc(NS(=O)(=O)c3sc4ccc(Cl)cc4c3C)cc12 [Example 1c, N-[3-(2-diethylaminoethyl)-1H-indol-5-yl]-5-chloro-3-methylbenzo[b]thiophene-2-sulphonamide]	170 to 173 °C
O=S(=O)(Nc1ccc2c(ccn2CCCN2CCCCC2)c1)c1cccc2c(Cl)cccc12 [Example 52e, 5-chloro-N-(1-(3-(piperidin-1-yl)propyl)-1H-indol-5-yl)naphthalene-1-sulfonamide]	92 to 96 °C
CN(C)CCc1c[nH]c2ccc(NS(=O)(=O)c3ccc4ccccc4c3)cc12	180 to 190 °C
Cc1cccc2c1N(C1CCN(CC(=O)Nc3ccc4c(c3)-c3ccccc3C4O)CC1)C(=O)OC2.Cl (centres unmarked)	207 to 212 °C
Cl.O=C(CN1CCC(N2C(=O)OCc3cc(Cl)ccc32)CC1)Nc1ccccc1	265 to 277 °C
Cl.O=C(CN1CCC(N2C(=O)OCc3ccccc32)CC1)Nc1ccc2c(c1)C(O)c1ccccc1-2 (centres unmarked)	> 225 °C (dec.)
CN(C)CCn1ccc2cc(NS(=O)(=O)c3ccc(Br)cc3)ccc21 [Example 22e, N-[1-(2-dimethylaminoethyl)-1H-indole-5-yl]-4-bromobenzenesulfonamide]	114 to 117 °C
Cc1ccc(S(=O)(=O)Nc2ccc3c(ccn3CCN(C)C)c2)cc1 [Example 8e, N-[1-(2-dimethylaminoethyl)-1H-indole-5-yl]-4-methylbenzenesulfonamide]	126 to 128 °C
Cc1cccc2c1N(C1CCN(CC(=O)Nc3ccc(C#N)cc3)CC1)C(=O)OC2.Cl	229 to 234 °C
CCN(CC)CCc1c[nH]c2ccc(NS(=O)(=O)c3cccc4ccccc34)cc12	170 °C
Cc1c(S(=O)(=O)Nc2ccc3[nH]cc(CN4CCN(C)CC4)c3c2)sc2ccc(Cl)cc12 [Example 19c, N-[3-(4-methylpiperazin-1-yl)methyl-1H-indol-5-yl]-5-chloro-3-methylbenzo[b]thiophene-2-sulphonamide]	230 °C (dec.)
Cc1ccc2c(c1)COC(=O)N2C1CCN(CC(=O)Nc2ccc3c(c2)-c2ccccc2C3O)CC1.Cl (centres unmarked)	238 to 241 °C
CN(C)CCc1c[nH]c2ccc(NS(=O)(=O)c3ccc(Oc4ccccc4)cc3)cc12	152 to 154 °C
CCN(CC)CCc1c[nH]c2ccc(NS(=O)(=O)c3ccc4ccccc4c3)cc12 [Example 17c, N-[3-(2-diethylaminoethyl)-1H-indol-5-yl]naphthalene-2-sulphonamide]	172 to 173 °C
Cl.O=C(CN1CCC(N2C(=O)OCc3cc(Cl)ccc32)CC1)Nc1ccc(Oc2ccccc2)cc1	262 to 267 °C
